Source: patent US11453703B2, “Heterotandem bicyclic peptide complexes” (BicycleTX Limited, priority 2018, dated 2022)

Experiments:
CD137 [1] = target: T1, CD137 (Homo sapiens, UniProt Q07011); assay: CD137 reporter assay, co-culture with Nectin-4 tumour cells; type: cell-based; set-up: host or cells: Jurkat reporter cells;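 also: jurkat reporter cells co-cultured with tumour cells and test article for 6 h, luminescence signal relative to Jurkat plus tumour cells lacking test article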
CD137 [2] = target: T1, CD137; assay: CD137 Biacore (SPR) binding assay; set-up: purchased R&D systems; conditions: biotinylated human CD137, 25° C.
Method: Biacore experiments were performed to determine ka (M^−1s^−1), kd (s^−1), KD (nM) values of heterotandem peptides binding to human CD137 protein. […] The protein was desalted to remove uncoupled biotin using spin columns into PBS.
For analysis of peptide binding, a Biacore T200 or a Biacore 3000 instrument was used with a XanTec CMD500D chip. Streptavidin was immobilized on the chip using standard amine-coupling chemistry at 25° C. with HBS-N (10 mM HEPES, 0.15 M NaCl, pH 7.4) as the running buffer. Briefly, the carboxymethyl dextran surface was activated with a 7 min injection of a 1:1 ratio of 0.4 M 1-ethyl-3-(3-dimethylaminopropyl) carbodiimide hydrochloride (EDC)/0.1 M N-hydroxy succinimide (NHS) at a flow rate of 10 μl/min. For capture of streptavidin, the protein was diluted to 0.2 mg/ml in 10 mM sodium acetate (pH 4.5) and captured by injecting 120 μl of onto the activated chip surface. Residual activated groups were blocked with a 7 min injection of 1 M ethanolamine (pH 8.5) and biotinylated CD137 captured to a level of 270-1500 RU. Buffer was changed to PBS/0.05% Tween 20 and a dilution series of the peptides was prepared in this buffer with a final DMSO concentration of 0.5%. The top peptide concentration was 500 nM with 6 further 2-fold or 3-fold dilutions. The SPR analysis was run at 25° C. at a flow rate of 90 μl/min with 60 seconds association and 900 seconds dissociation. After each cycle a regeneration step (10 μl of 10 mM glycine pH 2) was employed. Data were corrected for DMSO excluded volume effects as needed. All data were double-referenced for blank injections and reference surface using standard processing procedures and data processing and kinetic fitting were performed using Scrubber software, version 2.0c (BioLogic Software). Data were fitted using simple 1:1 binding model allowing for mass transport effects where appropriate.

[3] = test system: human PBMC co-cultured with 4T1-D02 (Nectin4+); assay: Human PBMC-4T1 co-culture (cytokine release) assay; type: cell-based; conditions: anti-CD3 stimulated PBMC, 48 hours
Method: Mouse mammary gland tumor cell line 4T1-1 (4T1-Parental) and murine Nectin-4 overexpressing 4T1 (4T1-D02) were cultured in RPMI1640 supplemented with 10% heat-inactivated Fetal Bovine Serum, 100 I.U/ml Penicillin and 100 I.U/Streptomycin, 20 mM HEPES, 1× Non-Essential Amino Acids, and 2 mM L-Glutamine (RPMI working medium). Frozen PBMCs from healthy human donors were thawed and washed one time in room temperature PBS, and then resuspended in RPMI working medium. For tumor cell and PBMC co-culture, 10000 PBMCs and 2000 tumor cells (5:1) were mixed and plated in each well of a 384 well plate. For stimulating human PBMCs, 125 ng/ml of soluble anti-CD3 mAb (clone OKT3) was added to the culture on day 0. Test, control compounds or vehicle controls were added to respective wells and brought the final volume per well to 100u1. Plates were incubated in a 37° C. cell culture incubator with 5% CO2 for up to three days. Supernatants were collected 48 hours after stimulation, and human IL-2 and IFFγ were detected using HTRF assays. Raw data were analyzed using Excel or Prism software to generate standard curves to interpolate protein concentrations. Data represents one study with three different donor PBMC tested in experimental duplicates.

human EphA2 protein = human EphA2 protein (Homo sapiens, UniProt P29317); assay: EphA2 Biacore (SPR) binding assay; conditions: biotinylated human EphA2, 25° C.
human EphA2 protein, sequence (P29317 24-976): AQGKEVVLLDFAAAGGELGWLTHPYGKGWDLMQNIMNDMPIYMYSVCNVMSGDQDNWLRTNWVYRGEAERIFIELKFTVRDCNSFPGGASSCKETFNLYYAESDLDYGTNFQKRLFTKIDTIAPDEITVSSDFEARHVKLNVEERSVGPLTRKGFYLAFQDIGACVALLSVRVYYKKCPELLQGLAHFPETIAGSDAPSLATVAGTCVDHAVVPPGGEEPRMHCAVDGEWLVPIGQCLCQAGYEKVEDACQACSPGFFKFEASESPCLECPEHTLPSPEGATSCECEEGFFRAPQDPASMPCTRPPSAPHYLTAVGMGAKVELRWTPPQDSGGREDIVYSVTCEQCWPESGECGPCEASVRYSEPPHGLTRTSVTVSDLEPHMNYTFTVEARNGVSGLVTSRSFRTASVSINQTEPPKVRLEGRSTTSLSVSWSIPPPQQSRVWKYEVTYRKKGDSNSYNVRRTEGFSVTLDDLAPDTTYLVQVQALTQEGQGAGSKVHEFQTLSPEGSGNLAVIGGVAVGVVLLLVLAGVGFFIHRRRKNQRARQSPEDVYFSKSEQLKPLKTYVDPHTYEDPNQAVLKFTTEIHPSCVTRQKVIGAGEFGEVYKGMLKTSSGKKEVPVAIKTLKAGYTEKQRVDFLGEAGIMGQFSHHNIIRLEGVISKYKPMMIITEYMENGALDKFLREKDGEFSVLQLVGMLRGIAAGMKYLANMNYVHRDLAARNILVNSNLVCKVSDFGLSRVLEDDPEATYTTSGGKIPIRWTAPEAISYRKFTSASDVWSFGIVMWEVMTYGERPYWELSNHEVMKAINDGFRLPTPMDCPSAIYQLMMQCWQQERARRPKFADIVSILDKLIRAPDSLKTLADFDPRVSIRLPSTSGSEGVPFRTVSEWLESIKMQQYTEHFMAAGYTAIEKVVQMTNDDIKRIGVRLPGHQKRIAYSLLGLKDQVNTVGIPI
Method: Biacore experiments were performed to determine ka (M^−1s^−1), kd (s^−1), KD (nM) values of heterotandem peptides binding to human EphA2 protein.
EphA2 were biotinylated with EZ-Link™ Sulfo-NHS-LC-Biotin for 1 hour in 4 mM sodium acetate, 100 mM NaCl, pH 5.4 with a 3× molar excess of biotin over protein. The degree of labelling was determined using a Fluorescence Biotin Quantification Kit (Thermo) after dialysis of the reaction mixture into PBS. For analysis of peptide binding, a Biacore T200 instrument was used with a XanTec CMD500D chip. Streptavidin was immobilized on the chip using standard amine-coupling chemistry at 25° C. with HBS-N (10 mM HEPES, 0.15 M NaCl, pH 7.4) as the running buffer. Briefly, the carboxymethyl dextran surface was activated with a 7 min injection of a 1:1 ratio of 0.4 M 1-ethyl-3-(3-dimethylaminopropyl) carbodiimide hydrochloride (EDC)/0.1 M N-hydroxy succinimide (NHS) at a flow rate of 10 it/min. For capture of streptavidin, the protein was diluted to 0.2 mg/ml in 10 mM sodium acetate (pH 4.5) and captured by injecting 120 μl onto the activated chip surface. Residual activated groups were blocked with a 7 min injection of 1 M ethanolamine (pH 8.5):HBS-N (1:1). Buffer was changed to PBS/0.05% Tween 20 and biotinylated EphA2 was captured to a level of 500-1500 RU using a dilution of protein to 0.2 μM in buffer. A dilution series of the peptides was prepared in this buffer with a final DMSO concentration of 0.5% with a top peptide concentration was 50 or 100 nM and 6 further 2-fold dilutions. The SPR analysis was run at 25° C. at a flow rate of 90 μl/min with 60 seconds association and 900-1200 seconds dissociation. Data were corrected for DMSO excluded volume effects. All data were double-referenced for blank injections and reference surface using standard processing procedures and data processing and kinetic fitting were performed using Scrubber software, version 2.0c (BioLogic Software). Data were fitted using simple 1:1 binding model allowing for mass transport effects where appropriate.

CD137 [4] = target: T1, CD137; assay: CD137 reporter assay, co-culture with EphA2 tumour cells; type: cell-based; set-up: host or cells: Jurkat reporter cells; conditions: tumour target EphA2, co-culture with SC-OV-3, 6 h
Summary of the method: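 Jurkat CD137 reporter cells co-cultured with tumour cells and serially diluted test articles in RPMI-1640 + 1% FBS, 6 h at 37 °C, 5% CO2. Luminescence read after Bio-Glo; fold change over cells-only background fitted log(agonist) vs response for EC50 (nM) and maximal fold induction.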

T1 sequence (Q07011 24-255): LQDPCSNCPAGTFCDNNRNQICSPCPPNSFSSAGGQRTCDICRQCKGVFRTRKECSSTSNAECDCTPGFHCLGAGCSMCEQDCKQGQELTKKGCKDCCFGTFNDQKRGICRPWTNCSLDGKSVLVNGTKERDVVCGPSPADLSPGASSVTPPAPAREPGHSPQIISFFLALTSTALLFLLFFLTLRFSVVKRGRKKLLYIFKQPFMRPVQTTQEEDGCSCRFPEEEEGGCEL

Row | SMILES | fold induction at 0.1 µM (CD137 [1]; read-out: Fold Induction over Background at 100 nM) | Kd (CD137 [2]) | max IFN-y [3] | Kd (human EphA2 protein) | EC50 (CD137 [4]) | Fold Induction over Background (CD137 [4]) | EC50 (CD137 [1]) | Fold Induction over Background (CD137 [1]; tumour target Nectin4, co-culture with H1376, 6 h) | EC50 ([3]; IFN-γ secretion)
1 | CCCC[C@@H]1NC(=O)[C@H](Cc2ccc(O)cc2)NC(=O)[C@@H]2CCCN2C(=O)[C@H](CC(=O)O)NC(=O)[C@@H](C)NC(=O)[C@H](Cc2ccccc2)NC(=O)[C@@H]2CSCCC(=O)N3CN(CN(C3)C(=O)CCSC[C@@H](C(=O)N[C@@H](CNC(=O)CCOCCOCCOCCOCCOCCOCCOCCOCCOCCOCCOCCOCCn3cc(CCC(=O)NCCC(=O)N(C)CC(=O)N(C)CC(=O)N(C)CC(=O)N(C)CC(=O)N(C)CC(=O)N(C)CC(=O)N(C)CC(=O)N(C)CC(=O)N(C)CC(=O)N(C)CC(=O)N[C@H]4CSCCC(=O)N5CN6CN(C5)C(=O)CCSC[C@H](NC(=O)[C@@H](CC(=O)O)NC(=O)[C@H](Cc5cccc7ccccc57)NC(=O)[C@@H]5CCCN5C4=O)C(=O)N[C@@H](CCSC)C(=O)N[C@@H](CCCCNC(=N)N)C(=O)N[C@@H](CC(=O)O)C(=O)N[C@@H](Cc4c[nH]c5ccccc45)C(=O)N[C@@H](CO)C(=O)N[C@@H]([C@@H](C)O)C(=O)N4CCC[C@H]4C(=O)N4C[C@H](O)C[C@H]4C(=O)N[C@@H](Cc4c[nH]c5ccccc45)C(=O)N[C@H](C(N)=O)CSCCC6=O)nn3)C(N)=O)NC1=O)C(=O)CCSC[C@H](NC(=O)[C@H](C)NC(C)=O)C(=O)N[C@@H]([C@@H](C)CC)C(=O)N[C@@H](CCC(=O)O)C(=O)N[C@@H](CCC(=O)O)C(=O)NCC(=O)N[C@@H](CCC(N)=O)C(=O)N[C@@H](Cc1ccc(O)cc1)C(=O)N2 [BCY9351] | < 2 | 3640 nM | No Activity up to 1 μM |  |  |  |  |  | 
2 | CCCC[C@@H]1NC(=O)[C@H](Cc2ccc(O)cc2)NC(=O)[C@@H]2CCCN2C(=O)[C@H](CC(=O)O)NC(=O)[C@H](C)NC(=O)[C@H](Cc2ccccc2)NC(=O)[C@@H]2CSCCC(=O)N3CN(CN(C3)C(=O)CCSC[C@@H](C(=O)N[C@@H](CNC(=O)CCc3cn(CCOCCOCCOCCOCCOCCOCCOCCOCCOCCOCCNC(=O)NCCC(=O)N(C)CC(=O)N(C)CC(=O)N(C)CC(=O)N(C)CC(=O)N(C)CC(=O)N(C)CC(=O)N(C)CC(=O)N(C)CC(=O)N(C)CC(=O)N(C)CC(=O)N[C@@H](C)C(=O)N[C@@H](CCCCNC(=N)N)C(=O)N[C@@H](CC(=O)O)C(=O)N[C@H]4CSCCC(=O)N5CN6CN(C5)C(=O)CCSC[C@H](NC(=O)[C@H](CC(C)C)NC(=O)[C@@H]5CCCN5C(=O)[C@H](CC(N)=O)NC(=O)[C@H](C(C)C)NC(=O)[C@H](CC(C)C)NC(=O)[C@@H]5C[C@@H](O)CN5C4=O)C(=O)N[C@@H](CC(C)C)C(=O)N[C@@H](Cc4c[nH]cn4)C(=O)N4CCC[C@H]4C(=O)N[C@H](CC(=O)O)C(=O)N[C@@H](Cc4c[nH]c5ccccc45)C(=O)N[C@@H](CCCCNC(=N)N)C(=O)N[C@H](C(N)=O)CSCCC6=O)nn3)C(N)=O)NC1=O)C(=O)CCSC[C@H](NC(=O)[C@H](C)NC(C)=O)C(=O)N[C@@H]([C@@H](C)CC)C(=O)N[C@@H](CCC(=O)O)C(=O)N[C@@H](CCC(=O)O)C(=O)NCC(=O)N[C@@H](CCC(N)=O)C(=O)N[C@@H](Cc1ccc(O)cc1)C(=O)N2 [BCY9647] |  | 206 nM |  | 1.69 nM | 7.2 nM | 24 fold |  |  | 
3 | CCCC[C@@H]1NC(=O)[C@H](Cc2ccc(O)cc2)NC(=O)[C@@H]2CCCN2C(=O)[C@H](CC(=O)O)NC(=O)[C@H](C)NC(=O)[C@H](Cc2ccccc2)NC(=O)[C@@H]2CSCCC(=O)N3CN(CN(C3)C(=O)CCSC[C@@H](C(=O)N[C@@H](CNC(=O)CCc3cn(CCOCCOCCOCCOCCOCCOCCOCCOCCOCCOCCOCCOCCOCCOCCOCCOCCOCCOCCOCCOCCOCCOCCOCCNC(=O)NCCC(=O)N(C)CC(=O)N(C)CC(=O)N(C)CC(=O)N(C)CC(=O)N(C)CC(=O)N(C)CC(=O)N(C)CC(=O)N(C)CC(=O)N(C)CC(=O)N(C)CC(=O)N[C@@H](C)C(=O)N[C@@H](CCCCNC(=N)N)C(=O)N[C@@H](CC(=O)O)C(=O)N[C@H]4CSCCC(=O)N5CN6CN(C5)C(=O)CCSC[C@H](NC(=O)[C@H](CC(C)C)NC(=O)[C@@H]5CCCN5C(=O)[C@H](CC(N)=O)NC(=O)[C@H](C(C)C)NC(=O)[C@H](CC(C)C)NC(=O)[C@@H]5C[C@@H](O)CN5C4=O)C(=O)N[C@@H](CC(C)C)C(=O)N[C@@H](Cc4c[nH]cn4)C(=O)N4CCC[C@H]4C(=O)N[C@H](CC(=O)O)C(=O)N[C@@H](Cc4c[nH]c5ccccc45)C(=O)N[C@@H](CCCCNC(=N)N)C(=O)N[C@H](C(N)=O)CSCCC6=O)nn3)C(N)=O)NC1=O)C(=O)CCSC[C@H](NC(=O)[C@H](C)NC(C)=O)C(=O)N[C@@H]([C@@H](C)CC)C(=O)N[C@@H](CCC(=O)O)C(=O)N[C@@H](CCC(=O)O)C(=O)NCC(=O)N[C@@H](CCC(N)=O)C(=O)N[C@@H](Cc1ccc(O)cc1)C(=O)N2 [BCY9648] |  | 202 nM |  | 1.75 nM | 9.3 nM | 20 fold |  |  | 
4 | CCCC[C@@H]1NC(=O)[C@H](Cc2ccc(O)cc2)NC(=O)[C@@H]2CCCN2C(=O)[C@H](CC(=O)O)NC(=O)[C@H](C)NC(=O)[C@H](Cc2ccccc2)NC(=O)[C@@H]2CSCCC(=O)N3CN(CN(C3)C(=O)CCSC[C@@H](C(=O)N[C@@H](C)C(N)=O)NC1=O)C(=O)CCSC[C@H](NC(C)=O)C(=O)N[C@@H](CC(C)(C)C)C(=O)N1CCC[C@H]1C(=O)N[C@@H](CCCCNC(=O)CCc1cn(CCOCCOCCOCCOCCOCCC(=O)N[C@H]3CSCCC(=O)N4CN5CN(C4)C(=O)CCSC[C@H](NC(=O)[C@@H](CC(=O)O)NC(=O)[C@H](Cc4cccc6ccccc46)NC(=O)[C@@H]4CCCN4C3=O)C(=O)N[C@@H](CCSC)C(=O)N[C@@H](CCCCNC(=N)N)C(=O)N[C@@H](CC(=O)O)C(=O)N[C@@H](Cc3c[nH]c4ccccc34)C(=O)N[C@@H](CO)C(=O)N[C@@H]([C@@H](C)O)C(=O)N3CCC[C@H]3C(=O)N3C[C@H](O)C[C@H]3C(=O)N[C@@H](Cc3c[nH]c4ccccc34)C(=O)N[C@H](C(N)=O)CSCCC5=O)nn1)C(=O)N[C@H](C)C(=O)N1CCC[C@H]1C(=O)N[C@@H](Cc1ccc(O)cc1)C(=O)N2 [BCY10571] |  |  | 18349 pg/mL |  |  |  | 3.5 nM | 60 fold | 0.44 nM
